According to patent publication US8158633B2, “Phenyl-substituted pyrazolopyrimidines” (Boehringer Ingelheim International GmbH, priority 2002, dated 2012):

Assays:
[1] = molecular target: T1, PDE9A (Homo sapiens, UniProt O76083); assay: PDE inhibition: recombinant PDE9A, [3H]cGMP scintillation proximity assay; format: biochemical; design: made in house; host or cells: Sf9 cells, pFASTBAC baculovirus expression system; settings: recombinant PDE9A expressed in Sf9 cells; read-out: IC50 (PDE9A-inhibiting effect)
From the text: Recombinant PDE1C (GenBank/EMBL Accession Number: NM_005020, Loughney et al. J. Biol. Chem. 1996 271, 796-806), PDE2A (GenBank/EMBL Accession Number: NM_002599, Rosman et al. Gene 1997 191, 89-95), PDE3B (GenBank/EMBL Accession Number: NM_000922, Miki et al. Genomics 1996, 36, 476-485), PDE4B (GenBank/EMBL Accession Number: NM_002600, Obernolte et al. Gene. 1993, 129, 239-247), PDE5A (GenBank/EMBL Accession Number: NM_001083, Loughney et al. Gene 1998, 216, 139-147), PDE7B (GenBank/EMBL Accession Number: NM_018945, Hetman et al. Proc. Natl. Acad. Sci. U.S.A. 2000, 97, 472-476), PDE8A (GenBank/EMBL Accession Number: AF—056490, Fisher et al. Biochem. Biophys. Res. Commun. 1998 246, 570-577), PDE9A (Fisher et al., J. Biol. Chem, 1998, 273 (25): 15559-15564), PDE10A (GenBank/EMBL Accession Number: NM_06661, Fujishige et al. J Biol Chem. 1999, 274, 18438-45), PDE11A (GenBank/EMBL Accession Number: NM_016953, Fawcett et al. Proc. Natl. Acad. Sci. 2000, 97, 3702-3707) were expressed in Sf9 cells with the aid of the pFASTBAC baculovirus expression system (GibcoBRL).
The test substances are dissolved in 100% DMSO and serially diluted to determine their in vitro effect on PDE 9A. Typically, serial dilutions from 200 μM to 1.6 μM are prepared (resulting final concentrations in the assay: 4 μM to 0.032 μM). 2 μL portions of the diluted substance solutions are introduced into the wells of microtiter plates (Isoplate; Wallac Inc., Atlanta, Ga.). Then 50 μL of a dilution of the PDE9A preparation described above are added. The dilution of the PDE9A preparation is chosen so that less than 70% of the substrate is converted during the subsequent incubation (typical dilution: 1:10000; dilution buffer: 50 mM Tris/HCl pH 7.5, 8.3 mM MgCl2, 1.7 mM EDTA, 0.2% BSA). The substrate, [8-^3H] guanosine 3′,5′-cyclic phosphate (1 μCi/μL; Amersham Pharmacia Biotech., Piscataway, N.J.) is diluted 1:2000 with assay buffer (50 mM Tris/HCl pH 7.5, 8.3 mM MgCl2, 1.7 mM EDTA) to a concentration of 0.0005 μCi/μL. The enzyme reaction is finally started by adding 50 μL (0.025 μCi) of the diluted substrate. The assay mixtures are incubated at room temperature for 60 min and the reaction is stopped by adding 25 μl of a PDE9A inhibitor (e.g. the inhibitor from preparation example 1, final concentration 10 μM) dissolved in assay buffer. Immediately thereafter, 25 μL of a suspension containing 18 mg/mL Yttrium Scintillation Proximity Beads (Amersham Pharmacia Biotech., Piscataway, N.J.) are added. The microtiter plates are sealed with a film and left to stand at room temperature for 60 min. The plates are then measured for 30 s per well in a Microbeta scintillation counter (Wallac Inc., Atlanta, Ga.). IC50 values are determined from the graphical plot of the substance concentration versus the percentage inhibition.

[2] = molecular target: T1, PDE9A; settings: isolated enzyme, concentrations of up to 100 μM; cited from earlier work
[3] = molecular target: T2, Murine PDE9A (Mus musculus, UniProt O70628); settings: concentrations below 200 μM; cited from earlier work
T2 sequence (O70628 1-534): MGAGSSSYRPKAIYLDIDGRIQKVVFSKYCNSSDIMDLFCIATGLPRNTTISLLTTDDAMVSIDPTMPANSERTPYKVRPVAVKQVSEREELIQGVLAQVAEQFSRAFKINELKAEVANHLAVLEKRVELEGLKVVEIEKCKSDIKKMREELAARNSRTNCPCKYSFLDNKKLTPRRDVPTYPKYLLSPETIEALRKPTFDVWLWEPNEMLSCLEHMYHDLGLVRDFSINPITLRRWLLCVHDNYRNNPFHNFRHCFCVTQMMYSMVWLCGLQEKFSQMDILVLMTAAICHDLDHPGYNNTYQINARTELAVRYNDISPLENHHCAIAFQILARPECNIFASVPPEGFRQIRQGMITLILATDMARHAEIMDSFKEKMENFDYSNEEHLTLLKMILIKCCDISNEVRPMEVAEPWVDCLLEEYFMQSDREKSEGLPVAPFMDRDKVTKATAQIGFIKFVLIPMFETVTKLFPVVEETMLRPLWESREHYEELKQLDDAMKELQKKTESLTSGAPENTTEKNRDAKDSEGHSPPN

T1 sequence (O76083 whole entry): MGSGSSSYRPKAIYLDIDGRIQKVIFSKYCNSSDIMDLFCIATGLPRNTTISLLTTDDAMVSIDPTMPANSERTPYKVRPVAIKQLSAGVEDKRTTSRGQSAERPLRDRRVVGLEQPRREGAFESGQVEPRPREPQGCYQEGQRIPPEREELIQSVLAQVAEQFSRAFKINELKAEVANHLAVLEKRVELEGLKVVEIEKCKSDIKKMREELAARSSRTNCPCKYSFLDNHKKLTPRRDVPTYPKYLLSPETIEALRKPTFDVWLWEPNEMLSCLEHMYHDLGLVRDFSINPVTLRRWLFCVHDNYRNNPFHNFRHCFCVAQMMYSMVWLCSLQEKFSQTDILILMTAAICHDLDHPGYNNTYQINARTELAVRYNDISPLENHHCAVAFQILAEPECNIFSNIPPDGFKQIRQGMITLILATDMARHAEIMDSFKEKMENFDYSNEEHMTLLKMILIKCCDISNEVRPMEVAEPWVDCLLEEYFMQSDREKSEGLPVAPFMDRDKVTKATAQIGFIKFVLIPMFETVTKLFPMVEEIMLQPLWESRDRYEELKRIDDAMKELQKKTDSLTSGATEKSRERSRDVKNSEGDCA

| SMILES | melting point [°C] | other results |
| --- | --- | --- |
| CCC(CC)n1ncc2c(=O)[nH]c(Cc3cc(Cl)ccc3Cl)nc21 [Example 9, 6-(2,5-Dichlorobenzyl)-1-(1-ethylpropyl)-1,5-dihydro-4H-pyrazolo[3,4-d]pyrimidin-4-one] | 134 |  |
| O=c1[nH]c(Cc2cccc(Br)c2)nc2c1cnn2C1CCCC1 [Example 3, 6-(3-Bromobenzyl)-1-cyclopentyl-1,5-dihydro-4H-pyrazolo[3,4-d]pyrimidin-4-one] | 159 |  |
| O=c1[nH]c(Cc2cccc(Cl)c2)nc2c1cnn2C1CCCC1 [Example 1, 6-(3-Chlorobenzyl)-1-cyclopentyl-1,5-dihydro-4H-pyrazolo[3,4-d]pyrimidin-4-one] | 159 | IC50 [1]: 20 nM |
| O=c1[nH]c(Cc2cc(Cl)cc(Cl)c2)nc2c1cnn2C1CCCC1 [Example 5, 6-(3,5-Dichlorobenzyl)-1-cyclopentyl-1,5-dihydro-4H-pyrazolo[3,4-d]pyrimidin-4-one] | 177 |  |
| CCC(CC)n1ncc2c(=O)[nH]c(Cc3cccc(C)c3)nc21 [Example 10, 6-(3-Methylbenzyl)-1-(1-ethylpropyl)-1,5-dihydro-4H-pyrazolo[3,4-d]pyrimidin-4-one] | 128 | IC50 [1]: 64 nM |
| O=c1[nH]c(Cc2ccccc2F)nc2c1cnn2C1CCCC1 [Example 2, 6-(2-Fluorobenzyl)-1-cyclopentyl-1,5-dihydro-4H-pyrazolo[3,4-d]pyrimidin-4-one] | 180 | IC50 [1]: 30 nM |
| CCOC(=O)C1=C[C@]2(CC)CCCN3CCc4c(n1c1ccccc41)[C@@H]32 [vinpocetine] |  | inhibition of human PDE9A [2]: no inhibition |
| CCC(CC)n1ncc2c(=O)[nH]c(Cc3cccc(Cl)c3)nc21 [Example 7, 6-(3-Chlorobenzyl)-1-(1-ethylpropyl)-1,5-dihydro-4H-pyrazolo[3,4-d]pyrimidin-4-one] | 138 |  |
| OCCN(CCO)c1nc(N2CCCCC2)c2nc(N(CCO)CCO)nc(N3CCCCC3)c2n1 [dipyridamole] |  | inhibition of human PDE9A [2]: no inhibition |
| S=c1[nH]c(Cc2cccc(Cl)c2)nc2c1cnn2C1CCCC1 [Example 13, 6-(3-Chlorobenzyl)-1-cyclopentyl-1,5-dihydro-4H-pyrazolo[3,4-d]pyrimidine-4-thione] | 154 | IC50 [1]: 30 nM |
| CC(C)Cn1c(=O)n(C)c(=O)c2[nH]cnc21 [IBMX] |  | inhibition of human PDE9A [2]: no inhibition; inhibition of murine PDE9A [3]: not inhibited |
| CCC(CC)n1ncc2c(=O)[nH]c(Cc3cccc(C(F)(F)F)c3)nc21 [Example 11, 1-(1-Ethylpropyl)-6-[3-(trifluoromethyl)benzyl]-1,5-dihydro-4H-pyrazolo[3,4-d]-pyrimidin-4-one] | 120 |  |
| Cc1cccc(Cc2nc3c(cnn3C3CCCC3)c(=O)[nH]2)c1 [Example 8, 6-(3-Methylbenzyl)-1-cyclopentyl-1,5-dihydro-4H-pyrazolo[3,4-d]pyrimidin-4-one] | 152 |  |
| O=c1[nH]c(Cc2cccc(Cl)c2Cl)nc2c1cnn2C1CCCC1 [Example 6, 6-(2,3-Dichlorobenzyl)-1-cyclopentyl-1,5-dihydro-4H-pyrazolo[3,4-d]pyrimidin-4-one] | 181 |  |
| CC(=O)Nc1ccc(-c2c[nH]c(=O)cn2)cc1 [SKF94120] |  | inhibition of human PDE9A [2]: no inhibition |
| O=c1[nH]c(Cc2ccc(Cl)c(Cl)c2)nc2c1cnn2C1CCCC1 [Example 4, 6-(3,4-Dichlorobenzyl)-1-cyclopentyl-1,5-dihydro-4H-pyrazolo[3,4-d]pyrimidin-4-one] | 198 | IC50 [1]: 30 nM |
| O=c1[nH]c(Cc2ccccc2OC(F)(F)F)nc2c1cnn2C1CCCC1 [Example 14, 1-Cyclopentyl-6-[2-(trifluoromethoxy)benzyl]-1,5-dihydro-4H-pyrazolo[3,4-d]-pyrimidin-4-one] | 161 |  |
| COc1ccc(C2CNC(=O)C2)cc1OC1CCCC1 (stereo not drawn) [rolipram] |  | inhibition of human PDE9A [2]: no inhibition |
